Columns and labels:
Assay type in all cases: in vivo
[1] = test system: Abutilon theophrasti (ABUTH); assay: Pre-emergence herbicidal action against ABUTH; details: Dosage column 320 g/ha (title prints 3200 g/ha); scored visually after about 3 weeks; 100% = plants have died
Procedure, shortened: (§1)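 Dosages of 320 g/ha or less; pre-emergence; WP or EC in aqueous spray, 0.5% additive, 600 l/ha; greenhouse; visual % effect after ~3 wk relative to control pots.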

[2] = test system: Alopecurus myosuroides (ALOMY); assay: Pre-emergence herbicidal action against ALOMY; details: scored visually after about 3 weeks, 100% = plants have died
Procedure, shortened: as §1

[3] = test system: Amaranthus retroflexus (AMARE); assay: Pre-emergence herbicidal action against AMARE; details: visual scoring after about 3 weeks vs untreated controls
Procedure, shortened: as §1

[4] = test system: Avena fatua (AVEFA); assay: Pre-emergence herbicidal action against AVEFA; details: visual scoring after about 3 weeks vs untreated controls
Procedure, shortened: as §1

[5] = test system: Digitaria sanguinalis (DIGSA); assay: Pre-emergence herbicidal action against DIGSA
Procedure, shortened: as §1

[6] = test system: Echinochloa crus-galli (ECHCG); assay: Pre-emergence herbicidal action against ECHCG
Procedure, shortened: as §1

[7] = test system: Lolium rigidum (LOLRI); assay: Pre-emergence herbicidal action against LOLRI
Procedure, shortened: as §1

[8] = test system: Matricaria inodora (MATIN); assay: Pre-emergence herbicidal action against MATIN
Procedure, shortened: as §1

[9] = test system: Pharbitis purpurea (PHBPU); assay: Pre-emergence herbicidal action against PHBPU
Procedure, shortened: as §1

[10] = test system: Polygonum convolvulus (POLCO); assay: Pre-emergence herbicidal action against POLCO
Procedure, shortened: as §1

[11] = test system: Setaria viridis (SETVI); assay: Pre-emergence herbicidal action against SETVI
Procedure, shortened: as §1

[12] = test system: Verconica persica (VERPE); assay: Pre-emergence herbicidal action against VERPE
Procedure, shortened: as §1

[13] = test system: Viola tricolor (VIOTR); assay: Pre-emergence herbicidal action against VIOTR
Procedure, shortened: as §1

[14] = test system: Abutilon theophrasti (ABUTH); assay: Post-emergence herbicidal action against ABUTH; details: 320 g/ha, visual rating about 3 weeks after treatment vs untreated controls (100% = plants have died, 0% = like control plants)
Procedure, shortened: (§2)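 Rates were 320 g/ha or below, applied as aqueous WP/EC spray with 0.5% additive (600 l/ha) onto one-leaf-stage plants. About 3 weeks later in the greenhouse, damage was scored visually against untreated plants on a 0–100% scale, where 100% means plants died.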

[15] = test system: Alopecurus myosuroides (ALOMY); assay: Post-emergence herbicidal action against ALOMY; details: visual rating about 3 weeks after treatment vs untreated controls (100% = plants have died, 0% = like control plants)
Procedure, shortened: as §2

[16] = test system: Amaranthus retroflexus (AMARE); assay: Post-emergence herbicidal action against AMARE
Procedure, shortened: as §2

[17] = test system: Avena fatua (AVEFA); assay: Post-emergence herbicidal action against AVEFA; details: visual rating about 3 weeks after treatment
Procedure, shortened: as §2

[18] = test system: Digitaria sanguinalis (DIGSA); assay: Post-emergence herbicidal action against DIGSA; details: visual rating about 3 weeks after treatment
Procedure, shortened: as §2

[19] = test system: Echinochloa crus-galli (ECHCG); assay: Post-emergence herbicidal action against ECHCG
Procedure, shortened: as §2

[20] = test system: Lolium rigidum (LOLRI); assay: Post-emergence herbicidal action against LOLRI
Procedure, shortened: as §2

[21] = test system: Matricaria inodora (MATIN); assay: Post-emergence herbicidal action against MATIN
Procedure, shortened: as §2

[22] = test system: Pharbitis purpurea (PHBPU); assay: Post-emergence herbicidal action against PHBPU
Procedure, shortened: as §2

[23] = test system: Polygonum convolvulus (POLCO); assay: Post-emergence herbicidal action against POLCO
Procedure, shortened: as §2

[24] = test system: Setaria viridis (SETVI); assay: Post-emergence herbicidal action against SETVI
Procedure, shortened: as §2

[25] = test system: Verconica persica (VERPE); assay: Post-emergence herbicidal action against VERPE
Procedure, shortened: as §2

[26] = test system: Viola tricolor (VIOTR); assay: Post-emergence herbicidal action against VIOTR
Procedure, shortened: as §2

[27] = 80 g/ha, visual scoring after about 3 weeks vs untreated controls

## COC(=O)[C@@H](C)Oc1nn(-c2nc(F)ccc2F)c(-c2cncc(F)c2)c1C1CC1 [Example I-171]
[1]
  Pre-emergence action against ABUTH: 90%
[2]; 80 g/ha
  Pre-emergence action against ALOMY: 100%
[2]; 320 g/ha
  Pre-emergence action against ALOMY: 100%
[3]; 80 g/ha
  Pre-emergence action against AMARE in %: 100%
[3]; 320 g/ha
  Pre-emergence action against AMARE in %: 100%
[4]; 80 g/ha
  Pre-emergence action against AVEFA in %: 90%
[4]; 320 g/ha
  Pre-emergence action against AVEFA in %: 100%
[5]; [27]
  Pre-emergence action against DIGSA in %: 80%
[5]; dosage 320 g/ha
  Pre-emergence action against DIGSA in %: 100%
[6]; dosage 80 g/ha
  Pre-emergence action against ECHCG in %: 100%
[6]; dosage 320 g/ha
  Pre-emergence action against ECHCG in %: 100%
[7]; dosage 80 g/ha
  Pre-emergence action against LOLRI in %: 100%
[7]; dosage 320 g/ha
  Pre-emergence action against LOLRI in %: 100%
[8]; dosage 80 g/ha
  Pre-emergence action against MATIN in %: 90%
[8]; dosage 320 g/ha
  Pre-emergence action against MATIN in %: 90%
[9]; dosage 80 g/ha
  Pre-emergence action against PHBPU in %: 80%
[9]; dosage 320 g/ha
  Pre-emergence action against PHBPU in %: 90%
[10]; dosage 80 g/ha
  Pre-emergence action against POLCO in %: 90%
[10]; dosage 320 g/ha
  Pre-emergence action against POLCO in %: 90%
[11]; dosage 80 g/ha
  Pre-emergence action against SETVI in %: 100%
[11]; dosage 320 g/ha
  Pre-emergence action against SETVI in %: 100%
[12]; dosage 80 g/ha
  Pre-emergence action against VERPE in %: 100%
[12]; dosage 320 g/ha
  Pre-emergence action against VERPE in %: 100%
[13]; 320 g/ha, Viola tricolor
  Pre-emergence action against VIOTR in %: 100%
[13]; dosage 80 g/ha
  Pre-emergence action against VIOTR in %: 100%
[14]
  Post-emergence action against ABUTH in %: 90%
[15]; 80 g/ha
  Post-emergence action against ALOMY in %: 90%
[15]; 320 g/ha
  Post-emergence action against ALOMY in %: 90%
[16]; 80 g/ha, visual rating about 3 weeks after treatment vs untreated controls (100% = plants have died, 0% = like control plants)
  Post-emergence action against AMARE in %: 80%
[16]; 320 g/ha, visual rating about 3 weeks after treatment
  Post-emergence action against AMARE in %: 80%
[17]; 80 g/ha
  Post-emergence action against AVEFA in %: 90%
[17]; 320 g/ha
  Post-emergence action against AVEFA in %: 90%
[18]; 320 g/ha
  Post-emergence action against DIGSA in %: 80%
[19]; dosage 80 g/ha
  Post-emergence action against ECHCG in %: 80%
[19]; dosage 320 g/ha
  Post-emergence action against ECHCG in %: 80%
[20]; dosage 80 g/ha
  Post-emergence action against LOLRI in %: 80%
[20]; dosage 320 g/ha
  Post-emergence action against LOLRI in %: 90%
[21]; dosage 80 g/ha
  Post-emergence action against MATIN in %: 80%
[21]; dosage 320 g/ha
  Post-emergence action against MATIN in %: 90%
[22]; dosage 80 g/ha
  Post-emergence action against PHBPU in %: 80%
[22]; dosage 320 g/ha
  Post-emergence action against PHBPU in %: 90%
[23]; dosage 80 g/ha
  Post-emergence action against POLCO in %: 80%
[23]; dosage 320 g/ha
  Post-emergence action against POLCO in %: 90%
[24]; dosage 80 g/ha
  Post-emergence action against SETVI in %: 90%
[24]; dosage 320 g/ha
  Post-emergence action against SETVI in %: 90%
[25]; 320 g/ha, VERPE
  Post-emergence action against VERPE in %: 90%
[25]; dosage 80 g/ha
  Post-emergence action against VERPE in %: 80%
[26]; 80 g/ha
  Post-emergence action against VIOTR in %: 90%
[26]; 320 g/ha
  Post-emergence action against VIOTR in %: 90%

## CCOC(=O)COc1nn(-c2nc(F)ccc2F)c(-c2cncc(F)c2)c1C1CC1 [Example I-149]
[1]
  Pre-emergence action against ABUTH: 80%
[2]; 80 g/ha
  Pre-emergence action against ALOMY: 90%
[2]; 320 g/ha
  Pre-emergence action against ALOMY: 100%
[3]; 80 g/ha
  Pre-emergence action against AMARE in %: 90%
[3]; 320 g/ha
  Pre-emergence action against AMARE in %: 100%
[4]; 80 g/ha
  Pre-emergence action against AVEFA in %: 80%
[4]; 320 g/ha
  Pre-emergence action against AVEFA in %: 90%
[5]; [27]
  Pre-emergence action against DIGSA in %: 90%
[5]; dosage 320 g/ha
  Pre-emergence action against DIGSA in %: 100%
[6]; dosage 80 g/ha
  Pre-emergence action against ECHCG in %: 90%
[6]; dosage 320 g/ha
  Pre-emergence action against ECHCG in %: 100%
[7]; dosage 80 g/ha
  Pre-emergence action against LOLRI in %: 100%
[7]; dosage 320 g/ha
  Pre-emergence action against LOLRI in %: 100%
[8]; dosage 80 g/ha
  Pre-emergence action against MATIN in %: 90%
[8]; dosage 320 g/ha
  Pre-emergence action against MATIN in %: 90%
[9]; dosage 80 g/ha
  Pre-emergence action against PHBPU in %: 80%
[9]; dosage 320 g/ha
  Pre-emergence action against PHBPU in %: 90%
[10]; dosage 80 g/ha
  Pre-emergence action against POLCO in %: 80%
[10]; dosage 320 g/ha
  Pre-emergence action against POLCO in %: 90%
[11]; dosage 80 g/ha
  Pre-emergence action against SETVI in %: 100%
[11]; dosage 320 g/ha
  Pre-emergence action against SETVI in %: 100%
[12]; dosage 320 g/ha
  Pre-emergence action against VERPE in %: 100%
[13]; 320 g/ha, Viola tricolor
  Pre-emergence action against VIOTR in %: 100%
[13]; dosage 80 g/ha
  Pre-emergence action against VIOTR in %: 100%
[15]; 80 g/ha
  Post-emergence action against ALOMY in %: 80%
[15]; 320 g/ha
  Post-emergence action against ALOMY in %: 90%
[17]; 320 g/ha
  Post-emergence action against AVEFA in %: 80%
[18]; 80 g/ha
  Post-emergence action against DIGSA in %: 80%
[18]; 320 g/ha
  Post-emergence action against DIGSA in %: 90%
[19]; dosage 80 g/ha
  Post-emergence action against ECHCG in %: 80%
[19]; dosage 320 g/ha
  Post-emergence action against ECHCG in %: 80%
[20]; dosage 80 g/ha
  Post-emergence action against LOLRI in %: 80%
[20]; dosage 320 g/ha
  Post-emergence action against LOLRI in %: 90%
[21]; dosage 80 g/ha
  Post-emergence action against MATIN in %: 80%
[21]; dosage 320 g/ha
  Post-emergence action against MATIN in %: 90%
[22]; dosage 80 g/ha
  Post-emergence action against PHBPU in %: 80%
[22]; dosage 320 g/ha
  Post-emergence action against PHBPU in %: 80%
[23]; dosage 320 g/ha
  Post-emergence action against POLCO in %: 80%
[24]; dosage 80 g/ha
  Post-emergence action against SETVI in %: 80%
[24]; dosage 320 g/ha
  Post-emergence action against SETVI in %: 80%
[25]; 320 g/ha, VERPE
  Post-emergence action against VERPE in %: 80%
[26]; 80 g/ha
  Post-emergence action against VIOTR in %: 80%
[26]; 320 g/ha
  Post-emergence action against VIOTR in %: 80%

— US20240041042A1, “1-(PYRIDYL)-5-AZINYLPYRAZOLE DERIVATIVES, AND THEIR USE FOR CONTROL OF UNDESIRED PLANT GROWTH” (Bayer Aktiengesellschaft, priority 2020, published 2024)
